Assay results published in patent US12465614B2, “Budesonide 21-phosphate salts and pharmaceutical compositions containing the same” (GENETIC S.P.A., priority 2020, dated 2025).
“Also recorded” adds a separate entry of the source.

Assays:
Type in all cases: in vivo
[1] = test system: mice with OVA-induced allergic asthma; test: Circulating leukocyte cell counts (Experimental Groups II); conditions: i.n.; FB all tested doses (0.3, 1.0, 3.0 nmol/animal); B and F 3 nmol/animal
Method: (§1) Male Balb/c SPF mice (25*2 g, 6-week-old) were purchased from the animal house facilities at the São Paulo School of Medicine (Federal University of São Paulo, Brazil). They were group-housed in a temperature-controlled room at 22° C. with a 12/12-hour light/dark cycle and allowed free access to food and water. The study is in agreement with the Ethical Principles for Animal Research established by the Brazilian College for Animal Experimentation (COBEA). According to the internal laboratory rules, euthanasia is performed if severe distress related to the test agents developed during the experiment. […] The compounds were dissolved in DMSO (Sigma Chemical Co., St. Louis, MO) at concentrations at which the determined dose per animal results from the intraperitoneal administration of 100 μl of solution (1:10 DMSO) and intra-nasal (i.n.) administration of 10 μl/animal (5 μl/nostril) of the solutions. Mice were sensitized with two subcutaneous injections of 0.4 ml of OVA/Al(OH)3, with an interval of 7 days (Sham animals received the Al(OH)3 suspension in PBS with no OVA). Seven days after the second sensitization (i.e., 3rd week), the animals were nebulized twice a week with the 1% OVA solution (Sham and untreated OVA groups were nebulized with PBS) during 20 minutes for the next 2 weeks. Sixty minutes before the challenges (OVA nebulization) and daily during the next 4 weeks, mice were intra-nasally treated (10 μl/animal as 5 μl/nostril) with the respective compounds/vehicle. After Penh evaluation, the mice were anesthetized with inhaled isofluorane (5% v/v in O2) and blood samples were collected from the descending abdominal aorta. The mice were then euthanized by exsanguination (blood samples were collected from each animal for leukocyte cell counting), and bronchoalveolar lavage (BAL) was performed by exposing and cannulating the trachea with a polyethylene tube (1 mm outer diameter) connected to a syringe. The lungs were washed by flushing 300 μL of heparin-containing PBS solution (20 Ul/mL). The retrieved BAL lavage aliquots were obtained, and the same procedure was repeated four additional times. The samples were submitted to centrifugation (1000 g for 10 min) and the cell pellet was resuspended in 200 μL of PBS solution. Total cell counts were determined using a Neubauer chamber, and differential counting was carried out in cytospin (Fanem Mod 2400; São Paulo, Brazil) preparations stained with May-Grünwald dye. Leukocytes were classified based on normal morphological criteria.

[2] = test system: mice with OVA-induced allergic asthma; test: BAL fluid cell counts (Experimental Groups II)
Method: as §1

[3] = test system: mice with OVA-induced allergic asthma; test: Lung hyperreactivity/Penh function, whole body plethysmography, intra-nasal FB, F, B (Experimental Groups II); conditions: i.n. daily 2 weeks, all tested doses: FB 0.3, 1.0, 3.0 nmol/animal, vs untreated OVA group
OVA-sensitized mice [4] = conditions: 1 mg/Kg i.p. before each OVA exposure; female Balb/c; vs OVA group; FIG. 10A
OVA-sensitized mice [5] = test: Bronchial relaxation to salbutamol, isolated bronchi of OVA-sensitized mice (Experimental Groups I); conditions: 1 mg/Kg i.p.; rings precontracted with carbachol; vs OVA group; FIG. 10B
[6] = test system: mice with OVA-induced allergic asthma; test: BAL fluid cell counts, Bud vs Bud-21 P (Experimental Groups III)
Method: Male Balb/c SPF mice (25*2 g, 6-week-old) were purchased from the animal house facilities at the São Paulo School of Medicine (Federal University of São Paulo, Brazil). They were group-housed in a temperature-controlled room at 22° C. with a 12/12-hour light/dark cycle and allowed free access to food and water. The study is in agreement with the Ethical Principles for Animal Research established by the Brazilian College for Animal Experimentation (COBEA). According to the internal laboratory rules, euthanasia is performed if severe distress related to the test agents developed during the experiment.
In Protocol 3, the test compounds budesonide (Bud; MW: 430.53 g/mol) and budesonide 21-phosphate free acid (Bud-21 P; MW: 510.51 g/mol) were administered at equimolar doses of 3, 10 and 30 nmol/animal/day, equivalent to 1.3, 4.3 and 12.9 μg/animal/day of Bud, 1.5, 5.1 and 15.3 μg/animal/day of Bud-21 P, respectively. […]
After Penh evaluation, the mice were anesthetized with inhaled isofluorane (5% v/v in O2) and blood samples were collected from the descending abdominal aorta. […] Total cell counts were determined using a Neubauer chamber, and differential counting was carried out in cytospin (Fanem Mod 2400; São Paulo, Brazil) preparations stained with May-Grünwald dye. […]

Row | SMILES | circulating macrophages [1] | OVA-induced increase of BAL macrophages ([2]; 3 nmol/animal i.n.) | total leukocytes in BAL fluid ([2]; 3 nmol/animal i.n., vs untreated OVA group) | eosinophils in BAL samples ([2]; i.n., all treatments: FB 0.3, 1.0, 3.0 nmol/animal, F and B 3.0 nmol/animal) | area under the Penh-metacholine concentration curve (AUC) ([3]; B 3.0 nmol/animal) | Penh maximal response Emax to inhaled metacholine ([3]; F and B 3.0 nmol/animal) | bronchial hyperreactivity (increased response of isolated bronchi to carbachol) (OVA-sensitized mice [4]) | bronchial relaxation to salbutamol (OVA-sensitized mice [5]) | total BAL leukocytes compared with Sham ([6]; 3 nmol/animal/day i.n.) | BAL macrophages compared with Sham ([6]; 3 or 10 nmol/animal/day i.n.)
1 | CCCC1OC2CC3C4CCC5=CC(=O)C=CC5(C)C4C(O)CC3(C)C2(C(=O)COP(=O)(O)O)O1 (stereo not shown) [B, Budesonide 21-phosphate] | significantly reduced the number of macrophages; also recorded: mild decrease of circulating macrophages | abolished the OVA-induced increase of BAL macrophages | significantly reduced | significantly controlled | showed no effect | showed no effect | did not significantly affect the increased response of carbachol | did not ameliorate the lack of bronchial response to salbutamol |  | 
2 | CCCC1OC2CC3C4CCC5=CC(=O)C=CC5(C)C4C(O)CC3(C)C2(C(=O)CO)O1 (stereo not drawn) [Bud, 11β,21-dihydroxy-16α,17α-(butylidenebis(oxy))pregna-1,4-diene-3.20-dione] |  |  |  |  |  |  |  |  | still significantly higher than that observed in the Sham mice | still significantly higher than those observed in the Sham group
